Laboratory results reported in PubChem BioAssay AID248 (DTP/NCI, 2004).
“And” between values parts separate entries of the source, which are not always exact repeats. Identical values can stand only once. Inconclusive results and toxic doses are left out. No stated cut-off is given here; in the data, active means T/C of 150% or more; inactive means T/C below 125%.

System: L1210 leukemia ip in BDF1 mice, survival T/C
Assay: NCI In Vivo Anticancer Drug Screen. Data for tumor model L1210 Leukemia (intraperitoneal) in B6D2F1 (BDF1) mice
Conditions: endpoint: mean survival time, higher = longer survival
Summary of the method: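 Read-out is survival time, reported as the treated-group measurement over the vehicle-control measurement.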

[1] = dose: 50.0 mg/kg/injection, schedule: Q01DX009 (ip), vehicle: saline with Tween-80
[2] = dose: 100.0 mg/kg/injection, schedule: Q01DX009 (ip), vehicle: saline with Tween-80
[3] = dose: 100.0 mg/kg/injection, schedule: Q04DX003 (ip), vehicle: saline with Tween-80
[4] = dose: 200.0 mg/kg/injection, schedule: Q01DX009 (ip), vehicle: saline with Tween-80
[5] = dose: 200.0 mg/kg/injection, schedule: Q04DX003 (ip), vehicle: saline with Tween-80
[6] = dose: 75.0 mg/kg/injection, schedule: Q01DX001 (ip), vehicle: saline
[7] = dose: 100.0 mg/kg/injection, schedule: Q01DX009 (ip), vehicle: saline
[8] = dose: 200.0 mg/kg/injection, schedule: Q01DX009 (ip), vehicle: saline
[9] = dose: 400.0 mg/kg/injection, schedule: Q01DX009 (ip), vehicle: saline
[10] = dose: 100.0 mg/kg/injection, schedule: Q04DX002 (ip), vehicle: Klucel (hydroxypropylcellulose) (HPC)
[11] = dose: 200.0 mg/kg/injection, schedule: Q04DX002 (ip), vehicle: Klucel (hydroxypropylcellulose) (HPC)
[12] = dose: 400.0 mg/kg/injection, schedule: Q04DX002 (ip), vehicle: Klucel (hydroxypropylcellulose) (HPC)
[13] = dose: 100.0 mg/kg/injection, schedule: Q04DX003 (ip), vehicle: Klucel (hydroxypropylcellulose) (HPC)
[14] = dose: 200.0 mg/kg/injection, schedule: Q04DX003 (ip), vehicle: Klucel (hydroxypropylcellulose) (HPC)
[15] = dose: 400.0 mg/kg/injection, schedule: Q04DX003 (ip), vehicle: Klucel (hydroxypropylcellulose) (HPC)
[16] = dose: 100.0 mg/kg/injection, schedule: Q01DX001 (ip), vehicle: carboxymethylcellulose (CMC)
[17] = dose: 200.0 mg/kg/injection, schedule: Q01DX001 (ip), vehicle: carboxymethylcellulose (CMC)
[18] = dose: 400.0 mg/kg/injection, schedule: Q01DX001 (ip), vehicle: carboxymethylcellulose (CMC)
[19] = dose: 150.0 mg/kg/injection, schedule: Q01DX001 (ip), vehicle: saline

Measured: T/C

COc1cc2ccnc(Cc3ccccc3)c2cc1OC
inactive: [1] 103 % of control | [2] 93 % of control and 94 % of control | [3] 102 % of control | [4] 88 % of control | [5] 100 % of control

COc1ccc(NC(=O)Nc2cccc(C(F)(F)F)c2)c(OC)c1
inactive: dose: 100.0 mg/kg/injection, schedule: Q01DX009 (ip), vehicle: gum acacia 102 % of control | dose: 200.0 mg/kg/injection, schedule: Q01DX009 (ip), vehicle: gum acacia 98 % of control | dose: 400.0 mg/kg/injection, schedule: Q01DX009 (ip), vehicle: gum acacia 101 % of control

CCOC(=O)CC(SP(=S)(Oc1ccccc1)Oc1ccccc1)C(=O)OCC (stereo not given)
inactive: dose: 100.0 mg/kg/injection, schedule: Q04DX002 (sc), vehicle: olive oil, sesame oil, peanut oil 100 % of control | dose: 200.0 mg/kg/injection, schedule: Q04DX002 (sc), vehicle: olive oil, sesame oil, peanut oil 103 % of control | dose: 400.0 mg/kg/injection, schedule: Q04DX002 (sc), vehicle: olive oil, sesame oil, peanut oil 93 % of control

O=C1N(c2cccnc2)C(c2ccccc2)C1(c1ccccc1)c1ccccc1 (stereo not given)
inactive: dose: 100.0 mg/kg/injection, schedule: Q04DX003 (ip), vehicle: gum acacia 91 % of control | dose: 200.0 mg/kg/injection, schedule: Q04DX003 (ip), vehicle: gum acacia 87 % of control | dose: 400.0 mg/kg/injection, schedule: Q04DX003 (ip), vehicle: gum acacia 91 % of control

C[N+](C)(C)C12CCCCC1S(=O)(=O)C2 (stereo not given)
inactive: [6] 108 % of control

O=C(O)c1ccsc1Cc1ccsc1
inactive: [1] 89 % of control | [2] 96 % of control | [4] 86 % of control

O=S(=O)(CC(Cl)c1ccccc1)c1ccccc1 (stereo not given)
inactive: dose: 100.0 mg/kg/injection, schedule: Q01DX001 (ip), vehicle: acetone 95 % of control | [7] 91 % of control | dose: 200.0 mg/kg/injection, schedule: Q01DX001 (ip), vehicle: acetone 98 % of control | [8] 94 % of control | dose: 400.0 mg/kg/injection, schedule: Q01DX001 (ip), vehicle: acetone 92 % of control | [9] 89 % of control

CC(=O)c1cccc(OCC(O)CN(C(C)C)C(C)C)c1 (stereo not given)
inactive: [7] 98 % of control | [8] 98 % of control

COc1ccc(C(c2ccc(OC)cc2)C(c2ccc(OC)cc2)c2ccc(OC)cc2)cc1
inactive: [10] 98 % of control | [11] 106 % of control | [12] 103 % of control

Cc1ccc(Cl)cc1NC(=O)Nc1ccccc1
inactive: dose: 0.75 mg/kg/injection, schedule: Q01DX009 (ip), vehicle: Klucel (hydroxypropylcellulose) (HPC) 92 % of control | dose: 1.5 mg/kg/injection, schedule: Q01DX009 (ip), vehicle: Klucel (hydroxypropylcellulose) (HPC) 90 % of control | dose: 3.0 mg/kg/injection, schedule: Q01DX009 (ip), vehicle: Klucel (hydroxypropylcellulose) (HPC) 94 % of control and 90 % of control | [13] 90 % of control | [14] 90 % of control | [15] 87 % of control

C/C=C1\CCOC1=O
inactive: dose: 100.0 mg/kg/injection, schedule: Q04DX002 (ip), vehicle: saline 94 % of control | dose: 200.0 mg/kg/injection, schedule: Q04DX002 (ip), vehicle: saline 91 % of control | dose: 400.0 mg/kg/injection, schedule: Q04DX002 (ip), vehicle: saline 105 % of control

CCOC(=O)c1cnc(SCc2ccccc2Cl)nc1N1CC1
inactive: dose: 12.5 mg/kg/injection, schedule: Q01DX001 (ip), vehicle: saline 100 % of control | dose: 12.5 mg/kg/injection, schedule: Q04DX003 (ip), vehicle: saline 100 % of control | dose: 25.0 mg/kg/injection, schedule: Q01DX001 (ip), vehicle: saline 98 % of control | dose: 25.0 mg/kg/injection, schedule: Q04DX003 (ip), vehicle: saline 101 % of control | dose: 28.05 mg/kg/injection, schedule: Q01DX009 (ip), vehicle: acetone 92 % of control | dose: 42.5 mg/kg/injection, schedule: Q01DX009 (ip), vehicle: acetone 112 % of control | dose: 50.0 mg/kg/injection, schedule: Q01DX001 (ip), vehicle: saline 98 % of control | dose: 50.0 mg/kg/injection, schedule: Q04DX003 (ip), vehicle: saline 98 % of control and 100 % of control and 113 % of control | dose: 63.75 mg/kg/injection, schedule: Q01DX009 (ip), vehicle: acetone 117 % of control | dose: 75.0 mg/kg/injection, schedule: Q04DX003 (ip), vehicle: saline 102 % of control and 117 % of control | dose: 110.0 mg/kg/injection, schedule: Q04DX003 (ip), vehicle: saline 104 % of control and 120 % of control | dose: 115.0 mg/kg/injection, schedule: Q04DX003 (ip), vehicle: saline 122 % of control | dose: 170.0 mg/kg/injection, schedule: Q04DX003 (ip), vehicle: saline 115 % of control

O=[N+]([O-])c1ccc(OCCO)c([N+](=O)[O-])c1
inactive: dose: 50.0 mg/kg/injection, schedule: Q04DX003 (ip), vehicle: saline with Tween-80 104 % of control | [3] 104 % of control | [5] 103 % of control

CCC(O)c1ccc2ccccc2c1 (stereo not given)
inactive: [16] 98 % of control | [17] 98 % of control | [18] 93 % of control

O=C(O)CC(C(=O)O)C1C=CCC1 (stereo not given)
inactive: [7] 97 % of control | [8] 115 % of control | [9] 101 % of control

COc1ccc(N=Nc2nccs2)c(O)c1
inactive: [1] 102 % of control | [2] 98 % of control | [4] 109 % of control

O=S1(=O)C2CCCC1CCC2
inactive: dose: 10.0 mg/kg/injection, schedule: Q01DX001 (ip), vehicle: saline 98 % of control and 109 % of control | dose: 40.0 mg/kg/injection, schedule: Q01DX001 (ip), vehicle: saline 102 % of control | [6] 109 % of control | [19] 100 % of control | dose: 300.0 mg/kg/injection, schedule: Q01DX001 (ip), vehicle: saline 104 % of control

COc1cccc(N2C(=O)C=CC2=O)c1
inactive: dose: 1.56 mg/kg/injection, schedule: Q01DX009 (ip), vehicle: Klucel (hydroxypropylcellulose) (HPC) 97 % of control | dose: 3.12 mg/kg/injection, schedule: Q01DX009 (ip), vehicle: Klucel (hydroxypropylcellulose) (HPC) 97 % of control

CC(C)(C)CC1=C(O)c2ccccc2C(=O)C1=O
inactive: dose: 50.0 mg/kg/injection, schedule: Q01DX001 (ip), vehicle: carboxymethylcellulose (CMC) 114 % of control | [16] 111 % of control | [17] 105 % of control | [18] 100 % of control

CC1(C)CC(=O)C2C(C1)Nc1ccccc1NC2c1ccccc1[N+](=O)[O-] (stereo not given)
inactive: [10] 103 % of control and 110 % of control | [11] 98 % of control and 92 % of control | [12] 95 % of control

O=C1CC(c2ccccc2)C(c2ccccc2)C(=O)N1 (stereo not given)
inactive: [6] 90 % of control | [19] 90 % of control

CCOC1=C(C)C(=O)C1C (stereo not given)
inactive: [7] 111 % of control | [8] 101 % of control | [9] 113 % of control

COCCOC(=O)c1ccc(C(=N)N)cc1
inactive: dose: 100.0 mg/kg/injection, schedule: Q01DX001 (ip), vehicle: saline 106 % of control | dose: 200.0 mg/kg/injection, schedule: Q01DX001 (ip), vehicle: saline 100 % of control
